Test results from ChEMBL document CHEMBL1158241, “Inhibition of hepatitis B surface antigen secretion on human hepatoma cells. Components from Rubia cordifolia” (J Nat Prod, 1996).
In brackets after ≈: the same amount, converted by molar mass. Activity calls are given as the source filed them. No cut-off for these calls is given here.

Columns and labels:
Hepatitis B virus [1] = assay: Antiviral activity against Hepatitis B virus infected in human Hep3B cells assessed as suppression of viral surface antigen secretion after 48 hrs by enzyme immunoassay; type: functional, organism-based, Hep 3B2
[2] = Cytotoxicity against human Hep3B cells at >20 […] by MTT assay; type: cell-based; conditions: hep 3b2
[3] = Cytotoxicity against human Hep3B cells by MTT assay; type: cell-based, Hep 3B2
Hepatitis B virus [4] = assay: Antiviral activity against Hepatitis B virus infected in human Hep3B cells assessed as suppression of viral surface antigen secretion at >5 […] after 48 hrs by enzyme immunoassay; type: functional, organism-based; conditions: Hep 3B2

Structure (SMILES) | IC50 (Hepatitis B virus [1]) [µg/mL] | Activity [2] | CC50 [3] [µg/mL] | Activity (Hepatitis B virus [4])
COc1c(C(=O)O)c2c(c3ccccc13)OC(C)(C)C=C2 | 4.5 (≈ 15.8 µM) | Not Active | – | –
COc1c(C(=O)OCCC(C)C)c2c(c3ccccc13)OC(C)(C)C=C2 | 0.8 (≈ 2.26 µM) | – | 10 (≈ 28.2 µM) | –
COC(=O)c1c2c(c3ccccc3c1OCc1ccccc1)OC(C)(C)C=C2 | 1 (≈ 2.67 µM) | Not Active | – | –
COC(=O)c1c2c(c3ccccc3c1OC(C)=O)OC(C)(C)C=C2 [ACETYLMOLLUGIN] | 2 (≈ 6.13 µM) | – | 10 (≈ 30.6 µM) | –
COC(=O)c1c2c(c3ccccc3c1OC)OC(C)(C)CC2 [DIHYDROMOLLUGIN METHYL ETHER] | – | – | 7 (≈ 23.3 µM) | inactive
COC(=O)c1c2c(c3ccccc3c1O)OC(C)(C)CC2 [DIHYDROMOLLUGIN] | 2 (≈ 6.99 µM) | – | 8.2 (≈ 28.6 µM) | –
COC(=O)c1c(O)c2ccccc2c2occc12 [FUROMOLLUGIN] | 2 (≈ 8.26 µM) | – | 11.5 (≈ 47.5 µM) | –
COC(=O)c1c(OC)c2ccccc2c2occc12 [METHYLFUROMOLLUGIN] | – | Not Active | – | inactive
COC(=O)c1c(OC)c2ccccc2c2oc(=O)ccc12 [METHYLRUBILACTONE] | – | – | 12.5 (≈ 44 µM) | inactive
COC(=O)c1c2c(c3ccccc3c1OC)OC(C)(C)C=C2 [MOLLUGIN METHYL ETHER] | – | Not Active | – | inactive
COC(=O)c1c2c(c3ccccc3c1O)OC(C)(C)C=C2 [MOLLUGIN] | 2 (≈ 7.03 µM) | Not Active | – | –
COC(=O)c1c(O)c2ccccc2c2oc(=O)ccc12 [RUBILACTONE] | – | – | 4 (≈ 14.8 µM) | inactive
